Measured values taken from patent US20260297081A1, “COMPOUNDS AND METHODS OF TREATING CANCERS” (Cullgen Inc., priority 2023, published 2026).

These compounds were tested on MCF7 cells (assay: Anti-proliferation (viability) of MCF7 cells (Table 7, FIG. 2B)). Conditions: Homo sapiens, MCF7, MCF7 cells, 3-6 days, 10-point serial dilution; read-out: GI IC50 in MCF-7.
Assay type: cell-based
For `[2H]C([2H])([2H])Nc1ccc(C(=O)Nc2cn(C)c(C3CC3)n2)c(NC2CC3(C2)CN(C(=O)CC(N2CCN(c4ccc(Nc5ncc6c(C)c(C(C)=O)c(=O)n(C7CCCC7)c6n5)nc4)CC2)C(F)(F)F)C3)n1` (centres unmarked) [CPD-435, 2-((2-(3-(4-(6-((6-acetyl-8-cyclopentyl-5-methyl-7-oxo-7,8-dihydropyrido[2,3-d]pyrimidin-2-yl)amino)pyridin-3-yl)piperazin-1-yl)-4,4,4-trifluorobutanoyl)-2-azaspiro[3.3]heptan-6-yl)amino)-N-(2-cyclopropyl-1-methyl-1H-imidazol-4-yl)-6-((methyl-d3)amino)nicotinamide], the IC50 was < 50 nM. In the case of `CCCc1nc(NC(=O)c2ccc(NC)nc2NC2CC3(CC(NC(=O)CN4CCN(c5ccc(Nc6ncc7c(C)c(C(C)=O)c(=O)n(C8CCCC8)c7n6)nc5)CC4)C3)C2)cn1C` (centres unmarked) [CPD-309, 2-((6-(2-(4-(6-((6-acetyl-8-cyclopentyl-5-methyl-7-oxo-7,8-dihydropyrido[2,3-d]pyrimidin-2-yl)amino)pyridin-3-yl)piperazin-1-yl)acetamido)spiro[3.3]heptan-2-yl)amino)-N-(1-methyl-2-propyl-1H-imidazol-4-yl)-6-(methylamino)nicotinamide], the IC50 is reported as > 100 nM. In the case of `[2H]C([2H])([2H])Nc1ccc(C(=O)Nc2ccc(N(C)C)nn2)c(NC2CC3(C2)CC(C(=O)N2CC4(CCN(c5ccc(Nc6ncc7c(C)c(C(C)=O)c(=O)n(C8CCCC8)c7n6)nc5)C4)C2)C3)n1` (centres unmarked) [CPD-378, 2-((6-(6-(6-((6-acetyl-8-cyclopentyl-5-methyl-7-oxo-7,8-dihydropyrido[2,3-d]pyrimidin-2-yl)amino)pyridin-3-yl)-2,6-diazaspiro[3.4]octane-2-carbonyl)spiro[3.3]heptan-2-yl)amino)-N-(6-(dimethylamino)pyridazin-3-yl)-6-((methyl-d3)amino)nicotinamide], the IC50 is reported as > 100 nM. With `CC(=O)c1c(C)c2cnc(Nc3ccc(N4CCN(CCC(=O)N5CC(Nc6nc(NC(C)C)ccc6C(=O)Nc6cn(C)c(C7CC7)n6)C5)CC4)cn3)nc2n(C2CCCC2)c1=O` [CPD-304, 2-((1-(3-(4-(6-((6-acetyl-8-cyclopentyl-5-methyl-7-oxo-7,8-dihydropyrido[2,3-d]pyrimidin-2-yl)amino)pyridin-3-yl)piperazin-1-yl)propanoyl)azetidin-3-yl)amino)-N-(2-cyclopropyl-1-methyl-1H-imidazol-4-yl)-6-(isopropylamino)nicotinamide] the IC50 was > 100 nM. `CC(=O)c1c(C)c2cnc(Nc3ccc(N4CCN(C5CCN(C(=O)[C@H]6CC[C@@H](Nc7nc(NC(C)C)ccc7C(=O)Nc7ccc(N(C)C)nn7)C6)C5)CC4)cn3)nc2n(C2CCCC2)c1=O` (stereo partly drawn) [CPD-403, 2-(((1R,3S)-3-(3-(4-(6-((6-acetyl-8-cyclopentyl-5-methyl-7-oxo-7,8-dihydropyrido[2,3-d]pyrimidin-2-yl)amino)pyridin-3-yl)piperazin-1-yl)pyrrolidine-1-carbonyl)cyclopentyl)amino)-N-(6-(dimethylamino)pyridazin-3-yl)-6-(isopropylamino)nicotinamide] was tested, and the IC50 was 50 to 100 nM. `CNc1ccc(C(=O)Nc2cn(C)c(C3CC3)n2)c(NC2CC3(C2)CN(C(=O)C2CC24CCN(c2ccc(Nc5ncc6c(C)c(C(C)=O)c(=O)n(C7CCCC7)c6n5)nc2)CC4)C3)n1` (centres unmarked) [CPD-320, 2-((2-(6-(6-((6-acetyl-8-cyclopentyl-5-methyl-7-oxo-7,8-dihydropyrido[2,3-d]pyrimidin-2-yl)amino)pyridin-3-yl)-6-azaspiro[2.5]octane-1-carbonyl)-2-azaspiro[3.3]heptan-6-yl)amino)-N-(2-cyclopropyl-1-methyl-1H-imidazol-4-yl)-6-(methylamino)nicotinamide] was tested, and the IC50 was > 100 nM. With `CNc1ccc(C(=O)Nc2ccc(N(C)C)nn2)c(NC2CCC(C(=O)N3CC4(CCN(c5ccc(Nc6ncc7c(C)c(C(C)=O)c(=O)n(C8CCCC8)c7n6)nc5)CC4)C3)CC2)n1` (centres unmarked) [CPD-351, 2-((4-(7-(6-((6-acetyl-8-cyclopentyl-5-methyl-7-oxo-7,8-dihydropyrido[2,3-d]pyrimidin-2-yl)amino)pyridin-3-yl)-2,7-diazaspiro[3.5]nonane-2-carbonyl)cyclohexyl)amino)-N-(6-(dimethylamino)pyridazin-3-yl)-6-(methylamino)nicotinamide] the IC50 was > 100 nM. In the case of `CNc1ccc(C(=O)Nc2cn(C)c(C3CCC3)n2)c(NC2CC3(CC(NC(=O)CN4CCN(c5ccc(Nc6ncc7c(C)c(C(C)=O)c(=O)n(C8CCCC8)c7n6)nc5)CC4)C3)C2)n1` (centres unmarked) [CPD-310, 2-((6-(2-(4-(6-((6-acetyl-8-cyclopentyl-5-methyl-7-oxo-7,8-dihydropyrido[2,3-d]pyrimidin-2-yl)amino)pyridin-3-yl)piperazin-1-yl)acetamido)spiro[3.3]heptan-2-yl)amino)-N-(2-cyclobutyl-1-methyl-1H-imidazol-4-yl)-6-(methylamino)nicotinamide], the IC50 is reported as > 100 nM. In the case of `[2H]C([2H])([2H])Nc1ccc(C(=O)Nc2ccc(N(C)C)nn2)c(NC2CC3(CC(NC(=O)CN4CCC5(CCN(c6ccc(Nc7ncc8c(C)c(C(C)=O)c(=O)n(C9CCCC9)c8n7)nc6)C5)C4)C3)C2)n1` (centres unmarked) [CPD-449, 2-((6-(2-(7-(6-((6-acetyl-8-cyclopentyl-5-methyl-7-oxo-7,8-dihydropyrido[2,3-d]pyrimidin-2-yl)amino)pyridin-3-yl)-2,7-diazaspiro[4.4]nonan-2-yl)acetamido)spiro[3.3]heptan-2-yl)amino)-N-(6-(dimethylamino)pyridazin-3-yl)-6-((methyl-d3)amino)nicotinamide], the IC50 is reported as < 50 nM. In the case of `CNc1ccc(C(=O)Nc2ccc(N(C)C)nn2)c(NC2CC(n3cc(CN4CCN(c5ccc(Nc6ncc7c(C)c(C(C)=O)c(=O)n(C8CCCC8)c7n6)nc5)CC4)nn3)C2)n1` (centres unmarked) [CPD-335, 2-((3-(4-((4-(6-((6-acetyl-8-cyclopentyl-5-methyl-7-oxo-7,8-dihydropyrido[2,3-d]pyrimidin-2-yl)amino)pyridin-3-yl)piperazin-1-yl)methyl)-1H-1,2,3-triazol-1-yl)cyclobutyl)amino)-N-(6-(dimethylamino)pyridazin-3-yl)-6-(methylamino)nicotinamide], the IC50 is reported as > 100 nM. `CC(=O)c1c(C)c2cnc(Nc3ccc(N4CCC(N5CC(C(=O)NC6CC7(C6)CC(Nc6nc(NC(C)C)ccc6C(=O)Nc6ccc(N(C)C)nn6)C7)C5)CC4)cn3)nc2n(C2CCCC2)c1=O` (centres unmarked) [CPD-393, 2-((6-(1-(1-(6-((6-acetyl-8-cyclopentyl-5-methyl-7-oxo-7,8-dihydropyrido[2,3-d]pyrimidin-2-yl)amino)pyridin-3-yl)piperidin-4-yl)azetidine-3-carboxamido)spiro[3.3]heptan-2-yl)amino)-N-(6-(dimethylamino)pyridazin-3-yl)-6-(isopropylamino)nicotinamide] was tested, and the IC50 was 50 to 100 nM. In the case of `CC(=O)c1c(C)c2cnc(Nc3ccc(N4CCN(C(C)CC(=O)N5CCC(Nc6nc(NC(C)C)ccc6C(=O)Nc6cn(C)c(C7CC7)n6)CC5)CC4)cn3)nc2n(C2CCCC2)c1=O` (centres unmarked) [CPD-431, 2-((1-(3-(4-(6-((6-acetyl-8-cyclopentyl-5-methyl-7-oxo-7,8-dihydropyrido[2,3-d]pyrimidin-2-yl)amino)pyridin-3-yl)piperazin-1-yl)butanoyl)piperidin-4-yl)amino)-N-(2-cyclopropyl-1-methyl-1H-imidazol-4-yl)-6-(isopropylamino)nicotinamide], the IC50 is reported as 50 to 100 nM. `[2H]C([2H])([2H])Nc1ccc(C(=O)Nc2ccc(N(C)C)nn2)c(NC2CC3(C2)CC(C(=O)N2CCC4(CCN(c5ccc(Nc6ncc7c(C)c(C(C)=O)c(=O)n(C8CCCC8)c7n6)nc5)C4)C2)C3)n1` (centres unmarked) [CPD-379, 2-((6-(7-(6-((6-acetyl-8-cyclopentyl-5-methyl-7-oxo-7,8-dihydropyrido[2,3-d]pyrimidin-2-yl)amino)pyridin-3-yl)-2,7-diazaspiro[4.4]nonane-2-carbonyl)spiro[3.3]heptan-2-yl)amino)-N-(6-(dimethylamino)pyridazin-3-yl)-6-((methyl-d3)amino)nicotinamide] was tested, and the IC50 was > 100 nM. With `[2H]C([2H])([2H])Nc1ccc(C(=O)Nc2cc(C)on2)c(NC2CC(C(C)NC(=O)CN3CCN(c4ccc(Nc5ncc6c(C)c(C(C)=O)c(=O)n(C7CCCC7)c6n5)nc4)CC3)C2)n1` (centres unmarked) [CPD-361, 2-((3-(1-(2-(4-(6-((6-acetyl-8-cyclopentyl-5-methyl-7-oxo-7,8-dihydropyrido[2,3-d]pyrimidin-2-yl)amino)pyridin-3-yl)piperazin-1-yl)acetamido)ethyl)cyclobutyl)amino)-6-((methyl-d3)amino)-N-(5-methylisoxazol-3-yl)nicotinamide] the IC50 was > 100 nM. In the case of `CC(=O)c1c(C)c2cnc(Nc3ccc(N4CC5(CN(CC(=O)N6CC7(CC(Nc8nc(NC(C)C)ccc8C(=O)Nc8ccc(N(C)C)nn8)C7)C6)C5)C4)cn3)nc2n(C2CCCC2)c1=O` [CPD-423, 2-((2-(2-(6-(6-((6-acetyl-8-cyclopentyl-5-methyl-7-oxo-7,8-dihydropyrido[2,3-d]pyrimidin-2-yl)amino)pyridin-3-yl)-2,6-diazaspiro[3.3]heptan-2-yl)acetyl)-2-azaspiro[3.3]heptan-6-yl)amino)-N-(6-(dimethylamino)pyridazin-3-yl)-6-(isopropylamino)nicotinamide], the IC50 is reported as 50 to 100 nM. With `CC(=O)c1c(C)c2cnc(Nc3ccc(N4CCN(CC(=O)NCC5CC(Nc6ccc(F)cc6C(=O)Nc6cc(C)n(C)n6)C5)CC4)cn3)nc2n(C2CCCC2)c1=O` (centres unmarked) [CPD-263, 2-((3-((2-(4-(6-((6-acetyl-8-cyclopentyl-5-methyl-7-oxo-7,8-dihydropyrido[2,3-d]pyrimidin-2-yl)amino)pyridin-3-yl)piperazin-1-yl)acetamido)methyl)cyclobutyl)amino)-N-(1,5-dimethyl-1H-pyrazol-3-yl)-5-fluorobenzamide] the IC50 was > 100 nM. In the case of `CC(=O)c1c(C)c2cnc(Nc3ccc(N4CCN(CC(=O)NCC5CC(Nc6cc(C(F)(F)F)ccc6C(=O)Nc6cc(C)n(C)n6)C5)CC4)cn3)nc2n(C2CCCC2)c1=O` (centres unmarked) [CPD-261, 2-((3-((2-(4-(6-((6-acetyl-8-cyclopentyl-5-methyl-7-oxo-7,8-dihydropyrido[2,3-d]pyrimidin-2-yl)amino)pyridin-3-yl)piperazin-1-yl)acetamido)methyl)cyclobutyl)amino)-N-(1,5-dimethyl-1H-pyrazol-3-yl)-4-(trifluoromethyl)benzamide], the IC50 is reported as > 100 nM.
